# Reference: PubChem BioAssay (NCI)
#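 At the GI50, growth is halved. TGI marks complete inhibition of growth.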
# Experiments:
# Assay in all cases: DTP human tumour cell line panel, 384-well format
# LOX IMVI melanoma = system: LOX IMVI melanoma
# HS 578T breast = system: HS 578T breast
# HOP-92 NSCLC = system: HOP-92 NSCLC
# HCT-15 colon = system: HCT-15 colon
# DU-145 prostate = system: DU-145 prostate
# EKVX NSCLC = system: EKVX NSCLC
# HOP-62 NSCLC = system: HOP-62 NSCLC
# OVCAR-3 ovarian = system: OVCAR-3 ovarian
# SF-539 CNS = system: SF-539 CNS
# NCI-H226 lung = system: NCI-H226 lung
# OVCAR-5 ovarian = system: OVCAR-5 ovarian
# TK-10 renal = system: TK-10 renal
# SN12C renal = system: SN12C renal
# RPMI-8226 leukemia = system: RPMI-8226 leukemia
# SR leukemia = system: SR leukemia
# M14 melanoma = system: M14 melanoma
# UO-31 renal = system: UO-31 renal
# COLO 205 colon = system: COLO 205 colon
# SNB-19 CNS = system: SNB-19 CNS
# SK-MEL-28 melanoma = system: SK-MEL-28 melanoma
# OVCAR-8 ovarian = system: OVCAR-8 ovarian
# CCRF-CEM leukemia = system: CCRF-CEM leukemia
# SNB-75 CNS = system: SNB-75 CNS
# U251 glioblastoma = system: U251 glioblastoma
# UACC-257 melanoma = system: UACC-257 melanoma
# SK-OV-3 ovarian = system: SK-OV-3 ovarian
# IGROV1 ovarian = system: IGROV1 ovarian
# HL-60(TB) leukemia = system: HL-60(TB) leukemia
# 786-0 renal = system: 786-0 renal
# HT29 colon = system: HT29 colon
# MCF7 breast = system: MCF7 breast
# BT-549 breast = system: BT-549 breast
# MDA-MB-435 melanoma = system: MDA-MB-435 melanoma
# SF-268 CNS = system: SF-268 CNS
# PC-3 prostate = system: PC-3 prostate
# NCI-H23 lung = system: NCI-H23 lung
# SK-MEL-2 melanoma = system: SK-MEL-2 melanoma
# HCC-2998 colon = system: HCC-2998 colon
# HCT-116 colon = system: HCT-116 colon
# A549 NSCLC = system: A549 NSCLC
# NCI/ADR-RES ovarian = system: NCI/ADR-RES ovarian
# ACHN renal = system: ACHN renal
# MDA-MB-231 breast = system: MDA-MB-231 breast
# SW-620 colon = system: SW-620 colon
# NCI-H460 NSCLC = system: NCI-H460 NSCLC
# T-47D breast = system: T-47D breast
# A498 renal = system: A498 renal
# NCI-H322M lung = system: NCI-H322M lung
# NCI-H522 lung = system: NCI-H522 lung
# KM12 colon = system: KM12 colon
# UACC-62 melanoma = system: UACC-62 melanoma
# CAKI-1 renal = system: CAKI-1 renal
# MOLT-4 leukemia = system: MOLT-4 leukemia
# SK-MEL-5 melanoma = system: SK-MEL-5 melanoma
# OVCAR-4 ovarian = system: OVCAR-4 ovarian
# MDA-MB-468 breast = system: MDA-MB-468 breast
# K-562 leukemia = system: K-562 leukemia
# MALME-3M melanoma = system: MALME-3M melanoma
# SF-295 CNS = system: SF-295 CNS
compound,measurement,setting,value
CCC1=C[C@@H]2CN(C1)Cc1c([nH]c3ccccc13)[C@@](C(=O)OC)(c1cc3c(cc1OC)N(C)[C@H]1[C@@](O)(C(=O)OC)[C@H](OC(C)=O)[C@]4(CC)C=CCN5CC[C@]31[C@@H]54)C2,GI50,LOX IMVI melanoma,171 nM
same,TGI,LOX IMVI melanoma,9700 nM
same,GI50,HS 578T breast,63.3 nM
same,TGI,HS 578T breast,174 nM
same,GI50,HOP-92 NSCLC,993 nM
same,TGI,HOP-92 NSCLC,11900 nM
same,GI50,HCT-15 colon,971 nM
same,TGI,HCT-15 colon,8150 nM
same,GI50,DU-145 prostate,139 nM
same,TGI,DU-145 prostate,1740 nM
same,GI50,EKVX NSCLC,650 nM
same,TGI,EKVX NSCLC,16200 nM
same,GI50,HOP-62 NSCLC,212 nM
same,TGI,HOP-62 NSCLC,12600 nM
same,GI50,OVCAR-3 ovarian,34.3 nM
same,TGI,OVCAR-3 ovarian,171 nM
same,GI50,SF-539 CNS,76.5 nM
same,TGI,SF-539 CNS,243 nM
same,GI50,NCI-H226 lung,681 nM
same,TGI,NCI-H226 lung,18600 nM
same,GI50,OVCAR-5 ovarian,638 nM
same,TGI,OVCAR-5 ovarian,19700 nM
same,GI50,TK-10 renal,1110 nM
same,TGI,TK-10 renal,18600 nM
same,GI50,SN12C renal,210 nM
same,TGI,SN12C renal,20100 nM
same,GI50,RPMI-8226 leukemia,33.6 nM
same,TGI,RPMI-8226 leukemia,83.4 nM
same,GI50,SR leukemia,< 10 nM
same,TGI,SR leukemia,16.1 nM
same,GI50,M14 melanoma,214 nM
same,TGI,M14 melanoma,13400 nM
same,GI50,UO-31 renal,4510 nM
same,TGI,UO-31 renal,17900 nM
same,GI50,COLO 205 colon,51.6 nM
same,TGI,COLO 205 colon,506 nM
same,GI50,SNB-19 CNS,180 nM
same,TGI,SNB-19 CNS,4700 nM
same,GI50,SK-MEL-28 melanoma,1520 nM
same,TGI,SK-MEL-28 melanoma,16100 nM
same,GI50,OVCAR-8 ovarian,237 nM
same,TGI,OVCAR-8 ovarian,768 nM
same,GI50,CCRF-CEM leukemia,53.5 nM
same,TGI,CCRF-CEM leukemia,104 nM
same,GI50,SNB-75 CNS,48.8 nM
same,TGI,SNB-75 CNS,126 nM
same,GI50,U251 glioblastoma,75.4 nM
same,TGI,U251 glioblastoma,1810 nM
same,GI50,UACC-257 melanoma,1260 nM
same,TGI,UACC-257 melanoma,15400 nM
same,GI50,SK-OV-3 ovarian,113 nM
same,TGI,SK-OV-3 ovarian,5850 nM
same,GI50,IGROV1 ovarian,652 nM
same,TGI,IGROV1 ovarian,> 32700 nM
same,GI50,HL-60(TB) leukemia,20.1 nM
same,TGI,HL-60(TB) leukemia,37.8 nM
same,GI50,786-0 renal,367 nM
same,TGI,786-0 renal,6050 nM
same,GI50,HT29 colon,58.5 nM
same,TGI,HT29 colon,1100 nM
same,GI50,MCF7 breast,65.1 nM
same,TGI,MCF7 breast,4760 nM
same,GI50,BT-549 breast,64.3 nM
same,TGI,BT-549 breast,710 nM
same,GI50,MDA-MB-435 melanoma,15.5 nM
same,TGI,MDA-MB-435 melanoma,47.2 nM
same,GI50,SF-268 CNS,228 nM
same,TGI,SF-268 CNS,12900 nM
same,GI50,PC-3 prostate,210 nM
same,TGI,PC-3 prostate,12600 nM
same,GI50,NCI-H23 lung,251 nM
same,TGI,NCI-H23 lung,881 nM
same,GI50,SK-MEL-2 melanoma,37 nM
same,TGI,SK-MEL-2 melanoma,216 nM
same,GI50,HCC-2998 colon,66.7 nM
same,TGI,HCC-2998 colon,286 nM
same,GI50,HCT-116 colon,73.9 nM
same,TGI,HCT-116 colon,3920 nM
same,GI50,A549 NSCLC,270 nM
same,TGI,A549 NSCLC,11800 nM
same,GI50,NCI/ADR-RES ovarian,24800 nM
same,TGI,NCI/ADR-RES ovarian,> 64300 nM
same,GI50,ACHN renal,2770 nM
same,TGI,ACHN renal,24500 nM
same,GI50,MDA-MB-231 breast,314 nM
same,TGI,MDA-MB-231 breast,14200 nM
same,GI50,SW-620 colon,155 nM
same,TGI,SW-620 colon,15100 nM
same,GI50,NCI-H460 NSCLC,69.4 nM
same,TGI,NCI-H460 NSCLC,220 nM
same,GI50,T-47D breast,10600 nM
same,TGI,T-47D breast,25500 nM
same,GI50,A498 renal,203 nM
same,TGI,A498 renal,2390 nM
same,GI50,NCI-H322M lung,645 nM
same,TGI,NCI-H322M lung,17800 nM
same,GI50,NCI-H522 lung,20.9 nM
same,TGI,NCI-H522 lung,46.2 nM
same,GI50,KM12 colon,50.8 nM
same,TGI,KM12 colon,4300 nM
same,GI50,UACC-62 melanoma,35.9 nM
same,TGI,UACC-62 melanoma,901 nM
same,GI50,CAKI-1 renal,651 nM
same,TGI,CAKI-1 renal,8980 nM
same,GI50,MOLT-4 leukemia,20.2 nM
same,TGI,MOLT-4 leukemia,36.6 nM
same,GI50,SK-MEL-5 melanoma,22 nM
same,TGI,SK-MEL-5 melanoma,49.4 nM
same,GI50,OVCAR-4 ovarian,2670 nM
same,TGI,OVCAR-4 ovarian,> 62600 nM
same,GI50,MDA-MB-468 breast,17.4 nM
same,TGI,MDA-MB-468 breast,35.5 nM
same,GI50,K-562 leukemia,42.1 nM
same,TGI,K-562 leukemia,174 nM
same,GI50,MALME-3M melanoma,120 nM
same,TGI,MALME-3M melanoma,18700 nM
same,GI50,SF-295 CNS,95.1 nM
same,TGI,SF-295 CNS,239 nM
